The experiment concerns human cholangiocarcinoma cell line TFK-1 (spheroid culture). In words: Cell viability (CellTiter Glo) of TFK-1 in spheroid culture in combination with cisplatin. It counts as cell-based. As to conditions: for viability at 0.001 µM / viability at 0.003 µM / viability at 0.01 µM / viability at 0.03 µM / viability at 0.1 µM / viability at 0.3 µM / viability at 1 µM / viability at 3 µM / viability at 10 µM / IC50: Homo sapiens; for viability at 0.001 µM / viability at 0.003 µM / viability at 0.01 µM / viability at 0.03 µM / viability at 0.1 µM / viability at 0.3 µM / viability at 1 µM / viability at 3 µM / viability at 10 µM: 72 h, TFK-1 spheroid, with cisplatin 10 μmol/L, 3 days; for viability at 0.001 µM: test substance 1.0 nM; for viability at 0.003 µM: test substance 3.0 nM; for viability at 0.01 µM: test substance 10.0 nM; for viability at 0.03 µM: test substance 30.0 nM; for viability at 0.1 µM: test substance 100.0 nM; for viability at 0.3 µM: test substance 300.0 nM; for viability at 1 µM: test substance 1000.0 nM; for viability at 3 µM: test substance 3000.0 nM; for viability at 10 µM: test substance 10000.0 nM; for IC50 / CI: TFK-1 spheroid culture; for CI: combination with cisplatin. An excerpt: On the combinational effect of the embodiment of the invention, the results of evaluation using a combination index (CI) which is a quantitative index of the combinational effect are shown. The CI can be calculated by the following equation according to Cancer Research, 2010, Vol. 70, pp. 440 to 446.
That is, in a case where the drugs to be used in combination are drug 1 and drug 2, the CI at a certain drug concentration is
CI={(cell viability in case of using drug 1 and drug 2 in combination)/100}/{[(cell viability in case of using drug 1)/100]×[(cell viability in case of using drug 2)/100]}
Evaluation of Antitumor Activity Against Cholangiocarcinoma Cell Line TFK-1 by Combined Use of Cisplatin in Spheroid Culture
Gemcitabine, cisplatin, and methanesulfonate of Compound A were used as test substances.
Gemcitabine hydrochloride (manufactured by Plantex Co., Ltd.) dissolved in dimethyl sulfoxide (DMSO) was used as gemcitabine. Cisplatin (Cat. #039-20091, manufactured by Wako Pure Chemical Industries, Ltd.) dissolved in DMSO was used as cisplatin.
Human cholangiocarcinoma cell line TFK-1 cells were subcultured in RPMI-1640 medium supplemented with 10% serum (Cat. #10437-028, manufactured by Thermo Fisher Scientific Inc.). During this test, all cell cultures were carried out in a CO2 incubator (set to 37° C. and 5% CO2, saturated with water vapor). The culture was diluted with 10% serum-supplemented medium to a cell density of 5000 cells/well/100 μL, and seeded on an Ultra-Low Attachment 96-well plate (Cat. #7007, manufactured by Corning Incorporated). The cells were cultured for 4 days to form spheroids.
The methanesulfonate of Compound A and gemcitabine were dissolved in DMSO to prepare 10 mmol/L DMSO solutions thereof. The thus-prepared DMSO solutions were diluted sequentially with DMSO to prepare DMSO solutions having a final treatment concentration of 1000-fold dilution. Cisplatin was dissolved in DMSO to prepare a 100 mmol/L DMSO solution. The thus-prepared DMSO solution of cisplatin was diluted with DMSO to prepare a DMSO solution having a final treatment concentration of 5000-fold dilution. Further, the DMSO solution of cisplatin was diluted with 10% serum-supplemented medium to prepare a cisplatin-containing medium having a final treatment concentration of 10-fold dilution. The DMSO diluted solutions of Compound A and gemcitabine were diluted with the cisplatin-containing medium to prepare treatment liquids having a final treatment concentration of 10-fold dilution. Compound A and gemcitabine were used with a maximum concentration of 10 μmol/L at a common ratio of 1/3 and 9 concentrations in combination with cisplatin (10 μmol/L).
10 μL of Compound A or gemcitabine diluted with the cisplatin-containing medium was added to each well. In addition, a group in which only a solvent containing no drug was added to wells in which cells were seeded (positive control), and a group in which only a solvent containing no drug was added to wells containing only a medium (negative control) were provided. All groups were set to n=3 well.
The cells were cultured for 3 days after the addition of the drug, and the cell viability was evaluated using a CellTiter Glo (registered trademark) Reagent (Cat. #G7570, manufactured by Promega Corporation) with the intracellular ATP level as an index. The concentration that inhibits cell viability by 50% (IC50 value) was calculated using XLFit software Ver.3 (registered trademark, manufactured by CTC Laboratory Systems Corporation).
The cell viability of each well was determined with the luminescence signal level of the negative control being 0% cell viability and the luminescence signal level of the positive control being 100% cell viability. The average value and standard deviation of the cell viability of each treatment group were calculated to prepare Table 9.
(ATP-based viability assays read luminescence as a measure of living cells.)

Usually viability stands for a read-out of living cells in per cent, often relative to untreated cells. The term IC50 denotes the concentration that gives 50% inhibition.

As to `Nc1ccn([C@@H]2O[C@H](CO)[C@@H](O)C2(F)F)c(=O)n1` [Gemcitabine], the viability at 0.001 µM stood at 97%, the viability at 0.003 µM was 97%, the viability at 0.01 µM was found to be 97% and the viability at 0.03 µM turned out to be 89%. For the same molecule, the viability at 0.1 µM stood at 90%, the viability at 0.3 µM turned out to be 83%, the viability at 1 µM is 83% and the viability at 3 µM is 77%. For the same molecule, the viability at 10 µM stood at 66% and the CI amounted to 0.78. Also, under “in combination with cisplatin (10 μmol/L)”, the half-maximal inhibitory concentration (IC50) was not below 10000 nM.
For `Nc1ccn([C@@H]2S[C@H](CO)[C@@H](O)[C@@H]2F)c(=O)n1` [Compound A, 1-(2-deoxy-2-fluoro-4-thio-β-D-arabinofuranosyl)cytosine], the viability at 0.001 µM worked out at 97%, the viability at 0.003 µM was 101%, the viability at 0.01 µM was 96% and the viability at 0.03 µM came to 91%. For the same molecule, the viability at 0.1 µM amounted to 90%, the viability at 0.3 µM stood at 65%, the viability at 1 µM was 23% and the viability at 3 µM turned out to be 14%. Besides, the viability at 10 µM was determined as 9% and the CI is listed as 0.13. Besides, the IC50 (in combination with cisplatin (5 μmol/L)) was found to be 469 nM.

The values are drawn from patent US20200405752A1, “ANTITUMOR AGENT, ANTITUMOR EFFECT ENHANCER, AND ANTITUMOR KIT” (FUJIFILM Corporation, priority 2018, published 2020).
